Test results reported in PMC12973313 (Chemical Science, 2026).
Like-named read-outs stand apart in the source and are kept apart here.

What was measured:
[1] = test system: A2780 ovarian cancer cells; assay: GI50 determination, SRB assay; assay type: cell-based, human; conditions: 96 hours; read-out: Mean GI50 (μM) A2780 SRB Assays
Procedure: (§1) GI50 determination assays
(§2) Cell culture: The RPE-1 retinal pigment epithelial, A2780 human ovarian carcinoma, and A2780 CisR cisplatin resistant human ovarian carcinoma cell lines were donated with thanks from the Institute of Cancer Research. The A2780 and A2780 CisR cell lines were cultured in IMDM supplemented with 10 % FBS at 37 °C and 5 % CO2, while the RPE-1 cell line was cultured in a 1:1 mixture of Dulbecco's Modified Eagle Medium and Ham’s F-12 Nutrient Mixture (DMEM/F-12) at 37 °C and 5 % CO2.
(§3) SRB assay: Cells were seeded into 96-well plates at 800 cells per well/cpw (A2780), 1600 cpw (A2780 CisR) or 400 cpw (RPE-1) in cell culture medium and cultured for 48 hours followed by addition of each compound over an eight-point concentration range (each concentration in triplicate). Plates were then cultured for a further 96 hours, after which the cell culture […]
(§4) medium was removed from each well and the cells fixed with addition of 70 µL/well of 10 % (w/v) trichloroacetic acid (TCA) in distilled water followed by incubation for 30 minutes at RT.
(§5) Each plate was then washed with distilled water five times before addition of 70 µL SRB dye (0.4 % (w/v) SRB dye (ThermoFisher Scientific, USA) solubilised in 1 % (v/v) acetic acid/ dH2O) and incubat ed for 30 minutes at RT, followed by washing three times with 1 % (v/v) acetic acid and drying in a 37 °C oven overnight. Once dry, 100 μl of 10 mM Tris -base (ThermoFisher Scientific, USA) was added to each well and plates put on a microplate shaker for 10 minutes at 200 rpm to solubilize the dye. Absorbance values were then read at wavelength 490 nm on a Victor X4 multi-label plate reader (PerkinElmer Life Sciences, USA), data analysed using Microsoft Excel and graphs produced using GraphPad Prism 9.0 and the GI50 value calculated.
(§6) Solutions and compo und preparation: All solvents and starting materials were purchased from known chemical suppliers. Compound stock solutions were prepared in DMSO. Buffer […]
(§7) 500 mM. Buffer B consisted of Na2SO4 (167 mM) and NaOAc (5 mM) with a pH of 5.5 and an ionic strength of 500 mM.
(§8) Vesicle formation: Giant unilamellar Vesicles (GUVS) were prepared through the electro formation method using a Nanion VesiclePrepPro. A solution of 1,2-diphytanoyl-sn-glycero-3-phosphocholine (DPhPC) (10 mM) with 10 % cholesterol in chloroform (20 µL) was deposited onto an ITO coated glass surface (surface coated glass slide) and allowed to evaporate to create a dehydrated thin lipid film. A greased O-ring was then placed around the dehydrated lipid film to create a seal. This volume was then filled with a sucrose solution (275 µL, 200 mM) and then sealed with a second ITO coated glass slide. An AC current (3 V/5 Hz) was then applied. After 2 hrs, the voltage and frequency were reduced in steps over 30 mins to 1.6 V/1 Hz and held for 1 hr before being reduced to 0 V/0 Hz over a further 30 min […]
(§9) Patch clamp measurements: Experiments were performed using a Port-a-Patch system (Nanion Technologies) with borosilicate glass chips that contain an aperture diameter of approximately 1 µm. Buffer A (5 µL) was placed on the underside of the chip over the aperture, The chip was then placed into the port-a-patch system. Buffer A (15 µL) was then added to the top of the chip and 5 µL of the GUV stock solution added. The GUVS were the positioned over the aperture in the chip by application of negative pressure (-30 mbar).
(§10) When a GUV is positioned over the aperture in the chip, it bursts, leaving a planar bilayer as a seal. The negative pressure is then removed, leaving the planar bilayer in place over the aperture. The external buffer A was the exchanged with buffer B, through four simultaneous […]
(§11) buffer exchanges (4 x 15 µL). […]
(§12) = 30 s, to give a final experimental concentration of 0.1 – 1 mM as appropriate. The number of sweeps was set to 1000, the sweep interval to 0.00 s, sample interval to 1.00 ms and the protocol was run for a total of 5 mins. Each experiment was repeated a minimum of three time to ensure reproducibility.

[2] = test system: A2780 CisR cisplatin resistant ovarian cancer cells; assay: GI50 determination, SRB assay; assay type: cell-based, human; conditions: 96 hours; read-out: Mean GI50 (μM) A2780 CisR SRB Assays
Procedure: as §1, §2, §3, §4, §5, §6, §7, §8, §9, §10, §11, §12

[3] = test system: RPE-1 cells; assay: GI50 determination, SRB assay; assay type: cell-based, human; conditions: 96 hours; read-out: Mean GI50 (μM) RPE-1 SRB Assays
Procedure: as §1, §2, §3, §4, §5, §6, §7, §8, §9, §10, §11, §12

[4] = Bi-directional permeability in Caco-2 cell line; assay type: in vitro ADME; conditions: human; for Papp B→A at 2 h, 5 µM: Caco-2, pH 7.4, 5 µM, basolateral to apical; for recovery at 2 h, 5 µM: Caco-2, pH 7.4, after 2 hours; for Papp A→B at 2 h, 5 µM: apical to basolateral
Source text: Next, to gauge the suitability of SSAs for oral dosing, 9 was subjected to a Caco-2 permeability assay which is used to both predict human intestinal permeability and investigate drug efflux, predicting in vivo compound absorption. This assay allows assessment of a compound's ability to undergo transport from the apical to the basolateral (A–B) compartments of the cell monolayer and vice versa (B–A). […] This is likely to result in poor absorption when dosed orally and therefore further development would be necessary for these agents to become suitable for oral administration. […]
The ionspray voltage was 5500V.
Bi-directional Permeability in Caco-2 Cell Line:
The bi-directional permeability in Caco-2 cell lines was determined by seeding cells onto an HTS Transwell plate. Cells were cultivated for 14-18 days in a cell culture incubator at 37°C, 5% CO2, 95% relative humidity. Cell culture medium was replaced every other day. To assess monolayer integrity the transepithelial electrical resistance (TEER) across the monolayer was measured using Millicell Epithelial volt-ohm meter prior to assay and Lucifer yellow (LY) fluorescence measurement post-assay.
Test compound was prepared in DMSO and diluted in Hank’s Balanced Saline Solution (HBSS, pH 7.4) to a final concentration of 5 µM. Compound was added to the donor compartment of the transwell plate for both apical to basolateral (A>B) and basolateral to apical (B>A) measurements, with blank HBSS being added to the receiver compartment. The transwell plate was then incubated at 37°C, 5% CO2 for 2 hours.
Samples were taken at T=0 and T=2 hours determine the concentration of initial donor sample, and the concentration of receiver and donor wells post-incubation, respectively.
The samples were quenched with solvent containing internal standard (IS). The supernatant was mixed with an appropriate volume of ultra-pure water before LC-MS/MS analysis.
Samples were analysed using a Shimadzu Nexera LC Binary Gradient LC-30AD (Shimadzu Inc, Kyoto), coupled to a Sciex 6500+ (AB Inc., Illinois). Separation of compounds was achieved using a HALO 90Å biphenyl (2.7µm,2.1x50mm) (Advanced Materials Technology, Wilmington) column at a temperature of 40°C. A binary mobile phase gradient at a flow rate of 0.7 mL/min was used. Initial LC conditions comprised of 95% solvent A (0.1% formic acid in water) and 5% solvent B (0.1% formic acid in acetonitrile). This was ramped to 95% solvent B at 0.7 minutes, held for 0.5 minutes and then immediately returned to initial conditions. Sample analysis was by electrospray ionisation combined with multiple reaction monitoring in positive ion mode. The ion spray voltage was 5500V.
In vitro Absorption, Distribution and Metabolism results
Table S1 – Result from solubility assays performed in PBS pH 7.4 for SSA 9.
Table S2 – Summary of results from Caco-2 permeability assays for SSA 9. Papp is given as […]
cm/s. A = apical; B = basolateral. Recovery = % SSA recovered from the assay after 2 hours.
ID Papp (A-B) % Recovery Papp (B-A) % Recovery Efflux Ratio
Table S3 – Summary of results from human plasma protein binding assays for SSA 9. % Bound = % of SSA bound to the plasma proteins after 6 hours incubation at 37 °C. Low % […]
= > 99 %. % Recovery = % SSA recovered from the assay after 6 hours.
ID % Bound % Recovery % Stability
Table S4 – Summary of results from mouse, rat and human microsomal stability assays for SSA 9. The in vitro half-life (t1/2) and microsomal intrinsic clearance (CLint) were calculated from the elimination rate (k, the slope of the natural log of concentration verses time curve), assuming first order kinetics, using the formulae t1/2 = 0.693/-k and CLint = 0.693/t1/2 […]. This compound would be classed as a low clearance compound in all three species. […]

[5] = Plasma protein binding, equilibrium dialysis; assay type: in vitro ADME, human; conditions: pH 7.4; human plasma, after 6 hours
Procedure: This allows an assessment of the free drug concentration available to distribute into the tissues and interact with the target. The extent to which a compound binds to the constituents of blood plasma can influence drug distribution. […] page 10: In vitro Absorption, Distribution and Metabolism studies General note: These studies were performed by Contract Research Organisation (CRO) Pharmaron. The methodology provided within the ESI is published within the express permission of this organisation. The percentage of a compound recovered during the […] limitations such as unintended potential non-specific binding events to experimental equipment, solubility issues, etc. Protein Binding measurements in human plasma by using equilibrium dialysis: The fraction unbound in human plasma (P-KB, Ltd People's hospital of Shandong) was measured using 96-well Equilibrium Dialysis Plate (HTDialysis LLC, Gales Ferry, CT). Human plasma containing 5 μM test compound was dialysed against dialysis buffer (PBS, pH 7.4) with initial samples taken to allow for assessment of plasma stability and recovery before the plate was incubated for 6 hours at 37°C at 5% CO2. Samples were removed at 6 hours, and all samples were matrix matched and quenched with acetonitrile containing internal standard. Samples were centrifuged at 3,220g for 30 minutes to precipitate protein and enable sampling of supernatant prior to appropriate dilution for liquid chromatography mass-spectrometry (LC-MS/MS) analysis. Samples were analysed using a Shimadzu Nexera LC Binary Gradient LC-30AD (Shimadzu Inc, Kyoto), coupled to a Sciex 6500+ (AB Inc., Illinois). Separation was achieved using a XSelect HSS T3 (2.5μm, 2.1 x 50 mm) (Waters Ltd., Wilmslow) column at a temperature of 40°C and a binary mobile phase gradient at a flow rate of 0.8 mL/min. Initial LC conditions comprised of […] was ramped to 98% B at 0.5 min, held for 0.4 min and then immediately returned to initial conditions. Sample analysis was by electrospray ionisation in combined with multiple reaction monitoring in positive ionisation mode. The ionisation voltage was +5500 V. Kinetic Solubility Determination in PBS pH 7.4: The stock solutions of test and control compounds were prepared in DMSO at 10 mM. From […] These solutions were then shaken at 1100 rpm for 2 hours at 25°C. Following incubation, the samples were filtered using a vacuum manifold. The filtrate was analysed and quantified against a standard of known concentration using liquid chromatography mass- spectrometry (LC-MS/MS). Samples were analysed using a Shimadzu Nexera LC Binary Gradient LC-30AD (Shimadzu Inc, Kyoto), coupled to a Sciex 4500 mass spectrometer (AB Inc., Illinois). Separation of […] Wilmslow) at a temperature of 40°C and a binary mobile phase gradient at a flow rate of 0.8 mL/min. […] This was ramped to 98% solvent B at 0.5 minutes, held for 0.4 minutes and then immediately returned to initial conditions. Sample analysis was by electrospray ionisation combined with multiple reaction monitoring in positive ion mode. The ionspray voltage was […]. 10

N.N.[Cl][Pt][Cl] [Cisplatin, cisplatin, reference compound]
GI50 [1]: 1.09 µM | GI50 [2]: 10.8 µM | GI50 [3]: 6.25 µM

C[C@H]1O[C@@H](O[C@H]2[C@@H](O)C[C@H](O[C@H]3[C@@H](O)C[C@H](O[C@H]4CC[C@@]5(C)[C@H](CC[C@@H]6[C@@H]5C[C@@H](O)[C@]5(C)[C@@H](C7=CC(=O)OC7)CC[C@]65O)C4)O[C@@H]3C)O[C@@H]2C)C[C@H](O)[C@@H]1O [Digoxin]
efflux ratio at 2 h, 5 µM ([4]; Caco-2, pH 7.4): 45.6 | Papp B→A at 2 h, 5 µM [4]: 18.7 ×10⁻⁶ cm/s | recovery at 2 h, 5 µM ([4]; read-out: Recovery (%) AP-BL): 95.9% | recovery at 2 h, 5 µM ([4]; read-out: Recovery (%) BL-AP): 99.2% | Papp A→B at 2 h, 5 µM ([4]; Caco-2, pH 7.4): 0.42 ×10⁻⁶ cm/s

CC(=O)N1CCN(c2ccc(OCC3COC(Cn4ccnc4)(c4ccc(Cl)cc4Cl)O3)cc2)CC1 (centres unmarked) [Ketoconazole, reference compound]
recovery at 6 h, 5 µM [5]: 96.6%

COCCc1ccc(OCC(O)CNC(C)C)cc1 (centres unmarked) [Metoprolol]
Papp B→A at 2 h, 5 µM [4]: 26.4 ×10⁻⁶ cm/s | efflux ratio at 2 h, 5 µM ([4]; Caco-2, pH 7.4, Caco-2): 0.93 | recovery at 2 h, 5 µM ([4]; read-out: Recovery (%) AP-BL): 108% | recovery at 2 h, 5 µM ([4]; read-out: Recovery (%) BL-AP): 99% | Papp A→B at 2 h, 5 µM ([4]; Caco-2, pH 7.4): 28.4 ×10⁻⁶ cm/s

CCCC[N+](CCCC)(CCCC)CCCC [TBACl, reference compound]
GI50 [1]: 114 µM | GI50 [2]: 219 µM | GI50 [3]: 532 µM
